In patent US20090317372A1, “SMALL MOLECULES FOR THE REDUCTION OF HIGH BLOOD GLUCOSE LEVEL” (priority 2008, published 2009):

What was measured:
Type in all cases: in vivo
C57/BL/6 mice [1] = assay: Glucose tolerance test with normal mice, PALP and CCcompound1 combined
Method: Female C57/BL/6 mice weighing 24-26-g and fasted for 12 hours before i.p. glucose administration (3 g/kg) were used. None of the animals received any food during the experiment other than glucose. One group of animals was untreated while animals in other groups received subcutaneous (s.c.) injections of 2.0 or 4.5-mg/kg of CCcompound1 either 30 min or 60 min prior to glucose administration as indicated in TABLE 5. Two groups of animals received i.p. injections of 0.4-mg per mouse (˜16-mg per kg) of highly purified PALP 24 hours prior to glucose administration. Purification of PALP was described in detail earlier [Z. Kiss, U.S. Pat. No. 7,048,914, “Placental Alkaline Phosphatase to Control Diabetes]. Animals in one of the PALP treated group also received s.c. injections of 4.5-mg/kg of CCcompound1 30 min prior to glucose administration as indicated in TABLE 5. Blood samples were taken and glucose concentrations were immediately measured as described earlier. Each group included five animals. The data are the mean±std. dev. of 5 determinations, i.e. one determination with each of the five animals. “-min” and “-h” indicates the length of period in minutes and hours, respectively, elapsed between the administration of test agents (first) and glucose (second).

Wistar rats = assay: Glucose tolerance test in starved rats
Method: Male Wistar rats weighing 240-270-g were divided into 3 groups, each group consisting of 6 or 7 animals. To ensure standard conditions animals were starved for 14 hours before the start of the experiment. CCcompound1 and CCcompound3 were injected (i.p.) 30 min prior to injecting 3-g/kg of glucose (i.p.). Blood sugar values of the experimental animals were measured with the Fast Glucose C-test; blood samples were taken from the tail. The data are the mean±std. dev. of 6-7 determinations, i.e. one determination with each of the 6-7 animals in the respective groups.

[2] = system: BDF1 (C57/BL/6 female×DBA/2 male) mice; assay: Glucose tolerance test with BDF1 mice, CCcompound1 and sub-optimal insulin; conditions: CCcompound1 4.5-mg/kg i.p. −15 min and/or insulin 0.02 IU −10 min
Method: In this experiment again, a sub-optimal dose of insulin was used to probe if CCcompound1 can enhance the effect of insulin on blood glucose. This time first generation hybrid BDF1 (C57/BL/6 female×DBA/2 male) adult (10-12 weeks old) male mice weighing 28-30-g and fasted for 14 hours before i.p. glucose administration (3-g/kg) were used. These mice were […] than mice in the previous experiment described under Example 5. None of the animals received any food during the experiment other than glucose. The animals received i.p. injections of 4.5-mg/kg of CCcompound1 and 0.02 IU of insulin 15 min and 10 min prior to glucose administration. Blood samples were taken and glucose concentrations in whole blood samples determined as described earlier. Each group included six animals. The data are the mean±std. dev. of 6 determinations, i.e. one determination with each of the six animals.

ob/ob mice = assay: Blood glucose in ob/ob mice, CCcompound1 combined with human proteins AGP and TF
Method: For each experimental group, ob/ob mice were chosen (5 mice in each group) that were 43 days old and weighed on average 40.3±1.9-g on the first day of experiment. Three groups of mice were treated with s.c. injection of 4.5-mg/kg CCcompound1 once every day for 17 days. Mice in one of these CCcompound1-treated groups received no other treatment, and their blood was drawn for glucose analysis on day 14 and 17 exactly 45 min after treatment. The second CCcompound1-treated group also received 0.5-mg/mouse (˜11 mg/kg) dose of greater than 98% pure commercial human transferrin [catalogue number, T 3309 according to 2004/2005 Sigma catalogue]. In this second group the blood was drawn on day 14 just prior to TF administration and on day 17 two hours after TF and 45 min after CCcompound1 administration. An additional group of animals received only TF treatment. The third CCcompound1-treated group also received 1.2-mg/mouse (26.6-mg/kg) dose of >99% pure human AGP [catalogue number G 9885 according to 2004/2005 Sigma catalogue]; in this group the blood was drawn on day 14 just prior to AGP administration and on day 17 two hours and 45 minutes after administration of AGP and CCcompound1, respectively. An additional group of animals received only AGP treatment, and yet another group of animals received no treatment at all. On day 1, prior to any treatment, the blood glucose level of all animals was in the range of 7.2-7.9 mM.

C57/BL/6 mice [3] = assay: Glucose tolerance test with normal mice (CC1, CC3, CC19)
Method: C57/BL/6 female mice weighing 22-23-g and fasted for 14 hours before intraperitoneal (i.p.) administration of glucose (3-g/kg) were used. None of the animals received any food during the experiment other than glucose. The animals received i.p. injections of 4.5-mg/kg of CCcompound1, CCcompound3, or CCcompound19 either 1 hour or 24 hours prior to glucose administration as indicated in TABLE 3. Blood samples were taken from the eyes (canthus), and glucose concentrations in whole blood samples were immediately measured with the Fast Glucose C test. Each group included six animals. The data, shown in TABLE 3, are the mean±std. dev. of 6 determinations, i.e. one determination with each of the six animals. In this and all subsequent experiments the values at 0 min reflect glucose concentration in blood samples collected 1-5 minutes prior to the administration of glucose.

Molecule `Cc1c(OCC(O)C[N+](C)(C)C)cc2c(=O)c3ccccc3sc2c1C.[Cl-]` (centres unmarked) [CCcompound 1, [3-(3,4-Dimethyl-9-oxo-9H-thioxanthen-2-yloxy)-2-hydroxypropyl]trimethyl-ammonium chloride] has a Blood glucose (C57/BL/6 mice [1]; CC1 2 mg/kg s.c. −30 min, 0 min) of 3.7 ± 0.4 mM, a Blood glucose (C57/BL/6 mice [1]; CC1 2 mg/kg s.c. −30 min, 30 min) of 6.6 ± 0.4 mM and a Blood glucose (C57/BL/6 mice [1]; CC1 2 mg/kg s.c. −30 min, 60 min) of 4.9 ± 0.6 mM. For the same molecule, the Blood glucose (C57/BL/6 mice [1]; CC1 2 mg/kg s.c. −30 min, 120 min) was 4.4 ± 0.5 mM, the Blood glucose (C57/BL/6 mice [1]; CC1 2 mg/kg s.c. −60 min, 0 min) was 3.9 ± 0.6 mM and the Blood glucose (C57/BL/6 mice [1]; CC1 2 mg/kg s.c. −60 min, 30 min) was 6.7 ± 0.5 mM. The Blood glucose (C57/BL/6 mice [1]; CC1 2 mg/kg s.c. −60 min, 60 min) was 5.2 ± 0.3 mM, the Blood glucose (C57/BL/6 mice [1]; CC1 2 mg/kg s.c. −60 min, 120 min) was 4.6 ± 0.3 mM and the Blood glucose (C57/BL/6 mice [1]; CC1 4.5 mg/kg s.c. −30 min, 0 min) was 3.6 ± 0.4 mM. For the same molecule, the Blood glucose (C57/BL/6 mice [1]; CC1 4.5 mg/kg s.c. −30 min, 30 min) was 6.2 ± 0.4 mM, the Blood glucose (C57/BL/6 mice [1]; CC1 4.5 mg/kg s.c. −30 min, 60 min) was 4.5 ± 0.3 mM and the Blood glucose (C57/BL/6 mice [1]; CC1 4.5 mg/kg s.c. −30 min, 120 min) was 4.2 ± 0.4 mM. For the same molecule, the Blood glucose (C57/BL/6 mice [1]; CC1 4.5 mg/kg s.c. −60 min, 0 min) was 3.8 ± 0.5 mM, the Blood glucose (C57/BL/6 mice [1]; CC1 4.5 mg/kg s.c. −60 min, 30 min) was 6.4 ± 0.3 mM and the Blood glucose (C57/BL/6 mice [1]; CC1 4.5 mg/kg s.c. −60 min, 60 min) was 4.5 ± 0.5 mM. It also gave a Blood glucose (C57/BL/6 mice [1]; CC1 4.5 mg/kg s.c. −60 min, 120 min) of 4.1 ± 0.6 mM, a Blood glucose (Wistar rats; rats starved 14 h, i.p. 30 min prior to glucose 3-g/kg i.p., 0 min) of 5.03 ± 0.44 mM and a Blood glucose (Wistar rats; rats, i.p. 30 min prior to glucose, 30 min) of 9.21 ± 0.45 mM. For the same molecule, the Blood glucose (Wistar rats; rats, i.p. 30 min prior to glucose, 60 min) was 5.73 ± 0.39 mM, the Blood glucose (Wistar rats; rats, i.p. 30 min prior to glucose, 90 min) was 5.11 ± 0.42 mM and the Blood glucose (Wistar rats; rats, i.p. 30 min prior to glucose, 120 min) was 5.37 ± 0.36 mM. For the same molecule, the Blood glucose ([2]; 0 min) was 3.1 ± 0.2 mM, the Blood glucose ([2]; 30 min) was 4.8 ± 0.3 mM and the Blood glucose ([2]; 60 min) was 3.5 ± 0.2 mM. For the same molecule, the Blood glucose level (ob/ob mice; 14th day, CC1 4.5-mg/kg s.c. daily, 45 min after treatment, blood drawn just prior to AGP or TF administration) was 10.9 ± 0.9 mM, the Blood glucose level (ob/ob mice; 17th day, 45 min after CC1 4.5-mg/kg s.c., two hours after TF 0.5-mg/mouse or AGP 1.2-mg/mouse) was 11.4 ± 0.4 mM and the Blood glucose (C57/BL/6 mice [3]; 4.5-mg/kg i.p. 1 h prior to glucose 3-g/kg i.p., 0 min) was 1.3 ± 0.3 mM. The “Reduction of blood glucose level” value (C57/BL/6 mice [3]; 4.5-mg/kg i.p. 1 h prior to glucose, 30th min of test period) was 33%, the Blood glucose (C57/BL/6 mice [3]; 4.5-mg/kg i.p. 1 h prior to glucose, 30 min) was 5.4 ± 0.5 mM and the Blood glucose (C57/BL/6 mice [3]; 4.5-mg/kg i.p. 1 h prior to glucose, 60 min) was 4.3 ± 0.4 mM. It also gave a Blood glucose (C57/BL/6 mice [3]; 4.5-mg/kg i.p. 1 h prior to glucose, 120 min) of 2.8 ± 0.2 mM, a Blood glucose (C57/BL/6 mice [3]; 4.5-mg/kg i.p. 1 h prior to glucose, 180 min) of 2.2 ± 0.2 mM and a Blood glucose (C57/BL/6 mice [3]; 4.5-mg/kg i.p. 24 h prior to glucose, 0 min) of 1.4 ± 0.2 mM. For the same molecule, the Blood glucose (C57/BL/6 mice [3]; 4.5-mg/kg i.p. 24 h prior to glucose, 30 min) was 7.0 ± 0.7 mM, the Blood glucose (C57/BL/6 mice [3]; 4.5-mg/kg i.p. 24 h prior to glucose, 60 min) was 5.2 ± 0.4 mM and the Blood glucose (C57/BL/6 mice [3]; 4.5-mg/kg i.p. 24 h prior to glucose, 120 min) was 3.4 ± 0.3 mM. The Blood glucose (C57/BL/6 mice [3]; 4.5-mg/kg i.p. 24 h prior to glucose, 180 min) was 2.8 ± 0.2 mM and the Glucose lowering effect (C57/BL/6 mice [3]; treatment 24 hours prior to glucose) was “smaller and not reproducible in additional experiments”.
